Laboratory results as given in ChEMBL document CHEMBL1134890, “Preparation of oxime dual NK(1)/NK(2) antagonists with reduced NK(3) affinity” (Bioorg Med Chem Lett, 2002).

Legend:
Assay type in all cases: cell-based
Substance-K receptor = target: T1, Substance-K receptor (Homo sapiens, UniProt P21452); assay: Binding affinity against recombinant human tachykinin receptor 2 in CHO cells using [3H]-NKA as radioligand
T1 sequence (P21452 whole entry): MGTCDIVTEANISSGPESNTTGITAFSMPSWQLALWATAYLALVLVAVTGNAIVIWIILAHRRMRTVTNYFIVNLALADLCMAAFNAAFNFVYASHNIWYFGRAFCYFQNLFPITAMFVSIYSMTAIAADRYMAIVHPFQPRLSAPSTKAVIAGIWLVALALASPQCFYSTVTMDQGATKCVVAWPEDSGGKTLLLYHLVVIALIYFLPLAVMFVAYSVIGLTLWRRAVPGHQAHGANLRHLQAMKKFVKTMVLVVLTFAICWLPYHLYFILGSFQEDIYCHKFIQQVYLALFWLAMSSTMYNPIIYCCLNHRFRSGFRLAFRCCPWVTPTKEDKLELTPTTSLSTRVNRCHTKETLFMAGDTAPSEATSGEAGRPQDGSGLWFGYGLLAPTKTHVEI

Neuromedin-K receptor = target: T2, Neuromedin-K receptor (Homo sapiens, UniProt P29371); assay: Binding affinity against recombinant human tachykinin receptor 3 in CHO cells using [125I][MePhe]-NKB as radioligand
T2 sequence (P29371 whole entry): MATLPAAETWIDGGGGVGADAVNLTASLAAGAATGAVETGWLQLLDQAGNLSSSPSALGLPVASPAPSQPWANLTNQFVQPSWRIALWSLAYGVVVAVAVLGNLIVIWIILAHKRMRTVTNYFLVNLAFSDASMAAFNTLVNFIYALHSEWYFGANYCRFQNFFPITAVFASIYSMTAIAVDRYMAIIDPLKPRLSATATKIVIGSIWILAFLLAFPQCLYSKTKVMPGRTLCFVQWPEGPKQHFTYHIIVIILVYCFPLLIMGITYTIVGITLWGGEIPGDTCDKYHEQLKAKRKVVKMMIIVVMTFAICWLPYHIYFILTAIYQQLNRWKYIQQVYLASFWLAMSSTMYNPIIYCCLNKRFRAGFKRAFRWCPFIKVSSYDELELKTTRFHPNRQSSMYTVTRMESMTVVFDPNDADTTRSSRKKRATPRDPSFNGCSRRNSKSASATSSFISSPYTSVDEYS

Substance-P receptor = Substance-P receptor (Homo sapiens, UniProt P25103); assay: Binding affinity against recombinant human tachykinin receptor 1 in CHO cells using [3H]-Sar SP as radioligand
Chain of Substance-P receptor (P25103 whole entry): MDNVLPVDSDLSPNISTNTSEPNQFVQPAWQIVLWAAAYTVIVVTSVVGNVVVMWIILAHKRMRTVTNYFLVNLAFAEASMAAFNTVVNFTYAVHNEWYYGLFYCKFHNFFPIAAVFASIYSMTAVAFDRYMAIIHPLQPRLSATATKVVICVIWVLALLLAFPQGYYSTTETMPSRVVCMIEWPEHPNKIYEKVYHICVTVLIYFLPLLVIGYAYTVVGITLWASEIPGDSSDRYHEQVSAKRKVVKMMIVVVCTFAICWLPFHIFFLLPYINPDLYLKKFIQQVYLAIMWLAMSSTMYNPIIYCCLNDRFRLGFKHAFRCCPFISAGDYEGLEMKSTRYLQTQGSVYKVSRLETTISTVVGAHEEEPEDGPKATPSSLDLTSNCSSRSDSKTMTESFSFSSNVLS

Ki (Substance-K receptor) | Ki (Neuromedin-K receptor) | Ki (Substance-P receptor) | SMILES
1.2 nM | 3.2 nM | 2.4 nM | CO/N=C(\CN(C)C(=O)c1cc(Cl)cc(Cl)c1)[C@H](CCN1CCC(N2CCCN(Cc3ccsc3)C2=O)CC1)c1ccc(Cl)c(Cl)c1
0.8 nM | 0.5 nM | 0.6 nM | CO/N=C(\CN(C)C(=O)c1cc(Cl)cc(Cl)c1)[C@H](CCN1CCC(N2CCCN(CC(=N)NO)C2=O)CC1)c1ccc(Cl)c(Cl)c1
3.1 nM | 304 nM | 1.2 nM | CO/N=C(\CN(CCF)C(=O)c1cc(Cl)cc(Cl)c1)[C@H](CCN1CCC(n2c(=O)n(CC(=O)O)c3ccccc32)CC1)c1ccc(Cl)c(Cl)c1
1.2 nM | 10.9 nM | 1.6 nM | CCOC(=O)[C@@H](Cc1ccc(O)cc1)N1CCCN(C2CCN(CC[C@@H](/C(CN(C)C(=O)c3cc(Cl)cc(Cl)c3)=N/OC)c3ccc(Cl)c(Cl)c3)CC2)C1=O
0.2 nM | 0.4 nM | 0.3 nM | CO/N=C(\CN(C)C(=O)c1cc(Cl)cc(Cl)c1)[C@H](CCN1CCC(N2CCCN(CC(N)=O)C2=O)CC1)c1ccc(Cl)c(Cl)c1
0.8 nM | – | – | CO/N=C(\CN(C)C(=O)c1cc(Cl)cc(Cl)c1)[C@H](CCN1CCC(N2CCCN(CC(C)(C)O)C2=O)CC1)c1ccc(Cl)c(Cl)c1
– | 2 nM | – | CO/N=C(\CN(C)C(=O)c1cc(Cl)cc(Cl)c1)[C@H](CCN1CCC(N2CCCN(Cc3nnn[nH]3)C2=O)CC1)c1ccc(Cl)c(Cl)c1
0.9 nM | 0.5 nM | 0.8 nM | CO/N=C(\CN(C)C(=O)c1cc(Cl)cc(Cl)c1)[C@H](CCN1CCC(N2CCCN(N3CCOCC3)C2=O)CC1)c1ccc(Cl)c(Cl)c1
1.1 nM | 2.2 nM | 1.1 nM | CO/N=C(\CN(C)C(=O)c1cc(Cl)cc(Cl)c1)[C@H](CCN1CCC(N2CCCN(Cc3ccoc3)C2=O)CC1)c1ccc(Cl)c(Cl)c1
3.6 nM | 281 nM | 3 nM | CCNC(=O)Cn1c(=O)n(C2CCN(CC[C@@H](/C(CN(CC)C(=O)c3cc(Cl)cc(Cl)c3)=N/OC)c3ccc(Cl)c(Cl)c3)CC2)c2ccccc21
0.5 nM | 0.4 nM | 0.6 nM | CO/N=C(\CN(C)C(=O)c1cc(Cl)cc(Cl)c1)[C@H](CCN1CCC(N2CCCN(CCNS(C)(=O)=O)C2=O)CC1)c1ccc(Cl)c(Cl)c1
4.9 nM | 231 nM | 3.2 nM | CO/N=C(\CN(CCF)C(=O)c1cc(Cl)cc(Cl)c1)[C@H](CCN1CCC(n2c(O)nc3ccccc32)CC1)c1ccc(Cl)c(Cl)c1
4 nM | 572 nM | 2 nM | CCN(C/C(=N\OC)[C@H](CCN1CCC(n2c(=O)n(CCOC)c3ccccc32)CC1)c1ccc(Cl)c(Cl)c1)C(=O)c1cc(Cl)cc(Cl)c1
0.8 nM | 0.6 nM | 0.9 nM | CO/N=C(\CN(C)C(=O)c1cc(Cl)cc(Cl)c1)[C@H](CCN1CCC(N2CCCN(C(C)C)C2=O)CC1)c1ccc(Cl)c(Cl)c1
0.4 nM | 0.3 nM | 0.8 nM | CO/N=C(\CN(C)C(=O)c1cc(Cl)cc(Cl)c1)[C@H](CCN1CCC(N2CCCN(C(C)(C)C(N)=O)C2=O)CC1)c1ccc(Cl)c(Cl)c1
0.7 nM | 0.8 nM | 0.7 nM | CO/N=C(\CN(C)C(=O)c1cc(Cl)cc(Cl)c1)[C@H](CCN1CCC(N2CCCN(Cc3ccccn3)C2=O)CC1)c1ccc(Cl)c(Cl)c1
– | 20 nM | – | CO/N=C(\CN(C)C(=O)c1cc(Cl)cc(Cl)c1)[C@H](CCN1CCC(n2c(=O)n(C)c3ccccc32)CC1)c1ccc(Cl)c(Cl)c1

Ki (Substance-K receptor) | Ki (Neuromedin-K receptor) | Ki (Substance-P receptor) | SMILES
1.2 nM | 11.8 nM | 1 nM | CO/N=C(\CN(C)C(=O)c1cc(Cl)cc(Cl)c1)[C@H](CCN1CCC(N2CCCN(CC(=O)OCc3ccccc3)C2=O)CC1)c1ccc(Cl)c(Cl)c1
– | 10 nM | – | CO/N=C(\CN(C)C(=O)c1cc(Cl)cc(Cl)c1)[C@H](CCN1CCC(n2c(=O)[nH]c3ccccc32)CC1)c1ccc(Cl)c(Cl)c1
2.8 nM | 312 nM | 2.7 nM | CCN(C/C(=N\OC)[C@H](CCN1CCC(n2c(=O)n(Cc3ccccn3)c3ccccc32)CC1)c1ccc(Cl)c(Cl)c1)C(=O)c1cc(Cl)cc(Cl)c1
0.5 nM | 0.5 nM | 1.9 nM | CO/N=C(\CN(C)C(=O)c1cc(Cl)cc(Cl)c1)[C@H](CCN1CCC(N2CCCN(c3ccccn3)C2=O)CC1)c1ccc(Cl)c(Cl)c1
5.2 nM | 176 nM | 2.4 nM | CCN(C/C(=N\OC)[C@H](CCN1CCC(n2c(=O)n(CC(=O)O)c3ccccc32)CC1)c1ccc(Cl)c(Cl)c1)C(=O)c1cc(Cl)cc(Cl)c1
2.5 nM | 674 nM | 2.3 nM | CCN(C/C(=N\OC)[C@H](CCN1CCC(n2c(=O)n(CC#N)c3ccccc32)CC1)c1ccc(Cl)c(Cl)c1)C(=O)c1cc(Cl)cc(Cl)c1
4.8 nM | 167 nM | 2.4 nM | CCN(C/C(=N\OC)[C@H](CCN1CCC(n2c(=O)n(CC(N)=O)c3ccccc32)CC1)c1ccc(Cl)c(Cl)c1)C(=O)c1cc(Cl)cc(Cl)c1
1.7 nM | 11 nM | 1.3 nM | CO/N=C(\CN(C)C(=O)c1cc(Cl)cc(Cl)c1)[C@H](CCN1CCC(n2c(=O)n(CC(=O)O)c3ccccc32)CC1)c1ccc(Cl)c(Cl)c1
4.1 nM | 945 nM | 1.9 nM | CCN(C/C(=N\OC)[C@H](CCN1CCC(n2c(=O)n(CC(=O)NCCOC)c3ccccc32)CC1)c1ccc(Cl)c(Cl)c1)C(=O)c1cc(Cl)cc(Cl)c1
0.4 nM | 0.3 nM | 1.3 nM | CNC(=O)C[C@H]1CCCN(C2CCN(CC[C@@H](/C(CN(C)C(=O)c3cc(Cl)cc(Cl)c3)=N/OC)c3ccc(Cl)c(Cl)c3)CC2)C1=O
0.7 nM | 0.8 nM | 0.4 nM | CO/N=C(\CN(C)C(=O)c1cc(Cl)cc(Cl)c1)[C@H](CCN1CCC(N2CCCN(C)C2=O)CC1)c1ccc(Cl)c(Cl)c1
0.5 nM | 0.3 nM | 0.6 nM | CO/N=C(\CN(C)C(=O)c1cc(Cl)cc(Cl)c1)[C@H](CCN1CCC(N2CCCN([C@H](CO)C(N)=O)C2=O)CC1)c1ccc(Cl)c(Cl)c1
1.2 nM | 1.3 nM | 0.9 nM | CNC(=O)CN1CCCN(C2CCN(CC[C@@H](/C(CN(C)C(=O)c3cc(Cl)cc(Cl)c3)=N/OC)c3ccc(Cl)c(Cl)c3)CC2)C1=O
1.8 nM | 29 nM | 1.3 nM | CO/N=C(\CN(C)C(=O)c1cc(Cl)cc(Cl)c1)[C@H](CCN1CCC(n2c(=O)n(CC(=O)OC)c3ccccc32)CC1)c1ccc(Cl)c(Cl)c1
2.5 nM | 103 nM | 157 nM | CO/N=C(\CN(C(=O)c1cc(Cl)cc(Cl)c1)C1CC1)[C@H](CCN1CCC(n2c(O)nc3ccccc32)CC1)c1ccc(Cl)c(Cl)c1
0.7 nM | 0.7 nM | 1 nM | CO/N=C(\CN(C)C(=O)c1cc(Cl)cc(Cl)c1)[C@H](CCN1CCC(N2CCCN(O)C2=O)CC1)c1ccc(Cl)c(Cl)c1
2.6 nM | 97 nM | 2.5 nM | CCN(C/C(=N\OC)[C@H](CCN1CCC(n2c(=O)[nH]c3ccccc32)CC1)c1ccc(Cl)c(Cl)c1)C(=O)c1cc(Cl)cc(Cl)c1
